Source: patent US6849728B1, “GLUT10: a glucose transporter in the type 2 diabetes linked region of chromosome 20Q12-13.1” (Wake Forest University Health Sciences, priority 2000, dated 2005)
“Also recorded” adds a separate entry of the source.

Key:
human GLUT10 = molecular target: T1, human GLUT10 (Homo sapiens, UniProt O95528); assay: 2-DOG uptake in Xenopus oocytes injected with GLUT10 RNA; format: cell-based; settings: for effect of competitors on [3H]2-DOG uptake: 100-fold excess: 25 mM competitor
T1 construct: A full-length GLUT10 cDNA was cloned into the expression vector pCMV-Tag4a (Stratagene); expressed in transfected cells; host or cells: Xenopus laevis oocytes injected with capped mRNA
T1 sequence (O95528 1-541): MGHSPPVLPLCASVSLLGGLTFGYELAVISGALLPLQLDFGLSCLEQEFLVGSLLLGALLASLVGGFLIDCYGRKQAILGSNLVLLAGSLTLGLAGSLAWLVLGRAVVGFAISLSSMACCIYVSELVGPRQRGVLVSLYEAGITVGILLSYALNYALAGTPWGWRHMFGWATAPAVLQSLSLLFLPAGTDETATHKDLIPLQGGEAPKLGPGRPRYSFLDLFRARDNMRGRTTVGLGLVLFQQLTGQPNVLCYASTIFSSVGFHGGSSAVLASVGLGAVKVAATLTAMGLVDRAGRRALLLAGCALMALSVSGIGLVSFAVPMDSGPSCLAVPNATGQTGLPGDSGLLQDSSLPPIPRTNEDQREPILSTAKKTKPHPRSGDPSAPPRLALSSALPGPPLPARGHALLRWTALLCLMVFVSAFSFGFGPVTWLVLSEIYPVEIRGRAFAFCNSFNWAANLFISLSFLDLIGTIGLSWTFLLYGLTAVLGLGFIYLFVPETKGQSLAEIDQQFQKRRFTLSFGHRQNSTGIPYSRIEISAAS
From the text: (§1) Material and Methods. A full-length GLUT10 cDNA was cloned into the expression vector pCMV-Tag4a (Stratagene). A PCR-based strategy employing Pfu polymerase was used for site-directed mutagenesis to generate the GLUT10 single nucleotide polymorpisms. The PCR products were digested with Eco RI, subcloned into pCMV-Tag4a, and the complete insert was sequenced to confirm the identity of the A206T and A287T GLUT10 glucose transporter cDNAs. The pcDNA3.1/GS plasmids expressing the full-length GLUT3 and GLUT4 cDNA were purchased from Invitrogen Corporation. Capped mRNA was generated using the mMESSAGE mMACHINE™ transcription kit (Ambion Inc).
Adult female Xenopus laevis were obtained from Xenopus Express (Homosassa, Fla.) and housed at 17-19° C. on a twelve-hour light/dark cycle. Stage V-VI oocytes were removed from anesthetized frogs and placed in isolation media (108 mM NaCl, 1 mM EDTA, 2 mM KCl, 10 mM HEPES, pH 7.5). The oocyte follicular layer was removed by immersion in 0.5 mg/ml collagenase buffer (83 mM NaCl, 2 mM KCl, 1 mM MgCl2, and 5 mM HEPES, pH 7.5). Isolated oocytes were maintained in modified Barth's saline (MBS; 88 mM NaCl, 1 mM KCl, 10 mM HEPES, 0.82 mM MgSO4, 2.4 mM NaHCO3, 0.91 mM CaCl2, and 0.33 mM Ca(NO3)2, pH 7.5). Visually healthy oocytes were injected with 30 nl of either a mRNA solution (1.0 μg/μl) or sterile water at the interface between the animal and vegetal poles. Individual oocytes were placed in 96-well microtiter plates (Costar Corporation) containing MBS plus 2 mM sodium pyruvate, 0.5 mM theophylline, 10 U/ml penicillin, 10 mg/l streptomycin and 50 mg/] gentamycin (Sigma) at 22° C.
(§2) DOG (final specific activity=0.5 Ci/mmol) (NEN Life Science Products, Inc.; American Radiochemical Company). Competitors, inhibitors, or insulin were added to the incubation as indicated. Uptake was terminated by removal of the radioactive solution and three 500 μl washes with ice-cold MBS containing 0.1 mM phloretin (Sigma). Pools of oocytes were dissolved in 10% SDS, mixed with scintillation fluid, and internalized radioactivity was measured by scintillation spectrometry using a Beckman LS-600 scintillation counter. Data are expressed as the arithmetic mean or median of duplicate or triplicate pools of 4 to 12 oocytes at each data point. Transport kinetics were analyzed by best-fit analysis of data points (Cricket Graph, Computer Associates) and Eadie-Hofstee transformation.

human GLUT4 = molecular target: T2, human GLUT4 (Homo sapiens, UniProt P14672); assay: 2-DOG uptake in Xenopus oocytes injected with GLUT4 RNA; format: cell-based; settings: pre-incubation with 100 μM insulin for 30 min, 250 μM [3H]2-DOG
T2 construct: The pcDNA3.1/GS plasmids expressing the full-length GLUT3 and GLUT4 cDNA were purchased from Invitrogen Corporation; host or cells: Xenopus laevis oocytes injected with capped mRNA
T2 sequence (P14672 1-509): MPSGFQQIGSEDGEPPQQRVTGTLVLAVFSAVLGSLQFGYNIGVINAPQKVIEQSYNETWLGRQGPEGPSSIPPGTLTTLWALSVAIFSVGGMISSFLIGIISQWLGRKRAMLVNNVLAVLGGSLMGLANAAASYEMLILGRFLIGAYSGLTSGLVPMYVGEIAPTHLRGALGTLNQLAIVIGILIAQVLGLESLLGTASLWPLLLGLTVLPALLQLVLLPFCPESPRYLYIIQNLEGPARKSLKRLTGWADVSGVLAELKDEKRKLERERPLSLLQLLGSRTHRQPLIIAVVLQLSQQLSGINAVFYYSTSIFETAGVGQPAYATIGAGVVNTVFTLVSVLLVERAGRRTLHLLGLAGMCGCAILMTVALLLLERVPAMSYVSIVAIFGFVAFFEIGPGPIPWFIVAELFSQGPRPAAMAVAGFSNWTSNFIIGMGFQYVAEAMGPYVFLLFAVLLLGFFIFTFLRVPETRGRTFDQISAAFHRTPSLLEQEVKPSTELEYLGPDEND
From the text: as §1
(§3) Adult female Xenopus laevis were obtained from Xenopus Express (Homosassa, Fla.) and housed at 17-19° C. on a twelve-hour light/dark cycle. […]
as §2, with “Competitors, inhibitors, or insulin were added to the incubation as indicated. Uptake was terminated by removal of the radioactive solution and three 500 μl washes with ice-cold MBS containing 0.1 mM phloretin (Sigma).” left out

GLUT10 A206T = molecular target: T3, GLUT10 A206T (Homo sapiens, UniProt O95528, A206T); assay: 2-DOG uptake in Xenopus oocytes expressing GLUT10 A206T isoform; format: cell-based; settings: pre-incubation with insulin
T3 construct: A full-length GLUT10 cDNA was cloned into the expression vector pCMV-Tag4a (Stratagene); expressed in transfected cells; host or cells: Xenopus laevis oocytes injected with capped mRNA
T3 sequence (O95528 1-541 A206T): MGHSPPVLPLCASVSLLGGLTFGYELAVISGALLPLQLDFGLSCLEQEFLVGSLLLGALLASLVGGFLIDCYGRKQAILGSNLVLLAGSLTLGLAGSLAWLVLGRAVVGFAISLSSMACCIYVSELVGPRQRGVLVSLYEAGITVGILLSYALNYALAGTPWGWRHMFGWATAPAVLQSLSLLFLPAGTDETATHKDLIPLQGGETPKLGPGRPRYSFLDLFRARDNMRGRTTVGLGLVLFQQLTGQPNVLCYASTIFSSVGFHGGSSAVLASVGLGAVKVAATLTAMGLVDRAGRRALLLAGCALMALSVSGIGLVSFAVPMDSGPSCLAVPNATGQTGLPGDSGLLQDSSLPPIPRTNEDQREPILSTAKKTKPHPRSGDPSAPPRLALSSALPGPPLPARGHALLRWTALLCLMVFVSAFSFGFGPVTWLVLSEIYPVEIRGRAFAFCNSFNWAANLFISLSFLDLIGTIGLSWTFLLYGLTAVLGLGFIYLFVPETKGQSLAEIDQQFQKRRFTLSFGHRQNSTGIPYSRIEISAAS
From the text: as §1, §3
as §2, with “Competitors, inhibitors, or insulin were added to the incubation as indicated. Uptake was terminated by removal of the radioactive solution and three 500 μl washes with ice-cold MBS containing 0.1 mM phloretin (Sigma).” left out, “transformation. […]” for “transformation.”

GLUT10 A28T = molecular target: T4, GLUT10 A28T (Homo sapiens, UniProt O95528, A287T); assay: 2-DOG uptake in Xenopus oocytes expressing GLUT10 A28T isoform; format: cell-based; settings: pre-incubation with insulin
T4 construct: A full-length GLUT10 cDNA was cloned into the expression vector pCMV-Tag4a (Stratagene); expressed in transfected cells; host or cells: Xenopus laevis oocytes injected with capped mRNA
T4 sequence (O95528 1-541 A287T): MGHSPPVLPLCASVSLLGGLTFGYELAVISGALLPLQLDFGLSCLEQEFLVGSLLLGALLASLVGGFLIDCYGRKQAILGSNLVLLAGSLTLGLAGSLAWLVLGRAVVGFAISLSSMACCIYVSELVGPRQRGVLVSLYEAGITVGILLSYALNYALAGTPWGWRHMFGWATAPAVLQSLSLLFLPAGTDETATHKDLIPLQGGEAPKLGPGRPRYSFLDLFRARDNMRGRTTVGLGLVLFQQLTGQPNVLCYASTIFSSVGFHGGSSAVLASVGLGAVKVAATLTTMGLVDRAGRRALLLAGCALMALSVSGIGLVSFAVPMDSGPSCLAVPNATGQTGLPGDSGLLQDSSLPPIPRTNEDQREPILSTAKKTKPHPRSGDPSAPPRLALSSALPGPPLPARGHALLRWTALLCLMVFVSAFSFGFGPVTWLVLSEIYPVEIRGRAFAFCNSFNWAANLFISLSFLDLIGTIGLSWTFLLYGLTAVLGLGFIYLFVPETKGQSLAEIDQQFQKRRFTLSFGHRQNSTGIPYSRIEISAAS
From the text: as §1, §3
as §2, with “Competitors, inhibitors, or insulin were added to the incubation as indicated. Uptake was terminated by removal of the radioactive solution and three 500 μl washes with ice-cold MBS containing 0.1 mM phloretin (Sigma).” left out, “transformation. […]” for “transformation.”

[1] = substrate: O=CC[C@@H](O)[C@H](O)[C@H](O)CO; assay: cells, lysate or membranes; settings: Eadie-Hofstee analysis, pH 7.5
[2] = 250 μM [3H]2-DOG, 30 min at 22° C.

O=CC[C@@H](O)[C@H](O)[C@H](O)CO [2-DOG, 2-deoxy-D-glucose]
2-DOG uptake over the water-injected controls (human GLUT10; 25 μM 2-DOG, 30 min at 22° C., 3 days after injection of 30 ng GLUT10 RNA): 5 fold | effect of competitors on [3H]2-DOG uptake (human GLUT10; [2]): effectively competed | Vmax of 2-DOG uptake (human GLUT10; GLUT10 RNA-injected oocytes, 30 min at 22° C., Eadie-Hofstee analysis): 0.85 pmol oocyte^−1 30 min^−1 | Km (human GLUT10; read-out: apparent Km for 2-DOG transport, GLUT10 mRNA-injected oocytes, 30 min, Eadie-Hofstee analysis): ~300 µM

O=C[C@H](O)[C@@H](O)[C@@H](O)[C@H](O)CO [D-galactose]
effect of competitors on [3H]2-DOG uptake (human GLUT10; [2]): inhibited 2-DOG uptake but less effectively; also recorded: competed

O=C[C@H](O)[C@@H](O)[C@H](O)[C@H](O)CO [D-glucose]
effect of competitors on [3H]2-DOG uptake (human GLUT10; [2]): effectively competed

O=C(CO)[C@@H](O)[C@H](O)[C@H](O)CO [fructose]
effect of competitors on [3H]2-DOG uptake (human GLUT10; [2]): did not inhibit

O=C(CCc1ccc(O)cc1)c1c(O)cc(O)cc1O [phloretin]
effect of phloretin on 2-DOG uptake (human GLUT10; 100 μM phloretin, 25 μM [3H]2-DOG, 30 min at 22° C.): inhibited

insulin
insulin stimulation of glucose transport (human GLUT10; pre-incubation with insulin, oocytes injected with GLUT10 mRNA): approximately 2 fold | insulin stimulation of 2-DOG transport (human GLUT10; wild type GLUT10, pre-incubation with 100 μM insulin for 30 min, 250 μM [3H]2-DOG): stimulated | insulin stimulation of 2-DOG transport (human GLUT4): stimulated | insulin stimulation of 2-DOG uptake activity (GLUT10 A206T): not stimulated | insulin stimulation of 2-DOG uptake activity (GLUT10 A28T): not stimulated

B1: human GLUT10 (Homo sapiens) (protein)
chain: MGHSPPVLPLCASVSLLGGLTFGYELAVISGALLPLQLDFGLSCLEQEFLVGSLLLGALLASLVGGFLIDCYGRKQAILGSNLVLLAGSLTLGLAGSLAWLVLGRAVVGFAISLSSMACCIYVSELVGPRQRGVLVSLYEAGITVGILLSYALNYALAGTPWGWRHMFGWATAPAVLQSLSLLFLPAGTDETATHKDLIPLQGGEAPKLGPGRPRYSFLDLFRARDNMRGRTTVGLGLVLFQQLTGQPNVLCYASTIFSSVGFHGGSSAVLASVGLGAVKVAATLTAMGLVDRAGRRALLLAGCALMALSVSGIGLVSFAVPMDSGPSCLAVPNATGQTGLPGDSGLLQDSSLPPIPRTNEDQREPILSTAKKTKPHPRSGDPSAPPRLALSSALPGPPLPARGHALLRWTALLCLMVFVSAFSFGFGPVTWLVLSEIYPVEIRGRAFAFCNSFNWAANLFISLSFLDLIGTIGLSWTFLLYGLTAVLGLGFIYLFVPETKGQSLAEIDQQFQKRRFTLSFGHRQNSTGIPYSRIEISAAS
Km ([1]; other: GLUT10 RNA (30 ng) injected oocytes, 30 min at 22° C., corrected for water-injected background): 280 µM | Km ([1]; other: GLUT10 mRNA-injected oocytes, 30 min, 22.0 °C): 300 µM
